Laboratory results published in US9408888B2, “High affinity bivalent helically constrained peptide against cancer” (COUNCIL OF SCIENTIFIC AND INDUSTRIAL RESEARCH, priority 2011, dated 2016).
Where a SMILES comes first, the peptide text is derived from it. Bridges are numbered along the chain shown (N, C = ends). Roman numbers before positions name the chains, in order. Where no end group is shown, it is not given here. [ ]: non-standard residue; d: D form. Aib = CC(C)(N)C(=O)O; Ahx = NCCCCCC(=O)O

Columns and labels:
S100B = biological target: T1, S100B (Homo sapiens, UniProt P04271); experiment: Fluorescence anisotropy binding of N-terminal fluorescein labeled peptides to S100B
T1 sequence (P04271 1-92): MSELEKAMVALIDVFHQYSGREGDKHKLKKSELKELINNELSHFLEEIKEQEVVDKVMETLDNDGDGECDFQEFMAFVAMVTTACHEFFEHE
Text: FIG. 2. (A) Table of some representative peptides synthesized which respectively include pM-53 (SEQ ID No. 6), pBN-53 (SEQ ID No. 7), pBDC-53 (SEQ ID No. 8), pBM-TRTK (SEQ ID No. 2), pBDC-TRTK (two SEQ ID No. 2's cross-linked together with BMH), and pBBD-TRTK (SEQ ID No. 11) and their dissociation constants. Binding isotherm of branch dimeric SEQ ID No. 3 (i.e., SEQ ID No. 11) with (B) S-100B and (C) S100P and (D) branch dimeric SEQ ID No. 5 (i.e., SEQ ID No. 12) with S100B. Fluorescein labeled, 5 nM branch dimeric SEQ ID No. 3 (i.e., SEQ ID No. 11) or branch dimeric SEQ ID No. 5 (i.e., SEQ ID No. 12) was titrated with increasing concentrations of S100B or S100P in 50 mM Tris-HCl buffer, pH 7.5, containing 50 mM NaCl and 10 mM CaCl2 at ambient temperatures which was 25±1 degree C. Anisotropy was determined at each point. The each point is averaging of at least three independent experiments. The line is best fit to a single site binding equation given in description of the invention.
Binding affinity of aib substituted p53 (SEQ ID No. 7) (and all other peptides) was estimated by fluorescence anisotropy using N-terminal fluorescein labeled peptides. […] Since S100B is a dimer, one possible way to enhance the binding is to synthesize a bivalent molecule, which can simultaneously bind to two subunits. SEQ ID No. 7 was dimerized with a properly designed cross-linker through inserted cysteine residues (SEQ ID No. 8). The C-terminal side of the two peptides (bound to two different subunits) comes fairly close and is separated by shallow groove allowing a cross-linker to fit. The length of the cross-linker was chosen such that it spans the separation between the two cysteine residues in the predicted structure.
Binding data of the several of these peptides are shown in FIG. 2 (A) and some of the corresponding binding isotherms are shown FIG. 2(B-D). […] Also synthesized was a mutant branched peptide (SEQ ID No. 12 which is a lysine branch dimeric form of SEQ ID No. 5) bearing two mutations in the interacting residues. […] This peptide will be used as a control in the cellular experiments to be described later.

SK-MEL5 cells = experiment: Phase contrast microscopy of SK-MEL5 cells (shape change, blebbing, apoptosis); assay type: cell-based
Text: FIG. 3. Phase contrast microscopy of SK-MEL5 cells (A) 2 hrs after treatment with 10 microM SEQ ID No. 10; (B) 18 hrs after treatment with 20 microM branch dimeric SEQ ID No. 5 (i.e., SEQ ID No. 12); (C) 2 hr after treatment with branch dimeric SEQ ID No. 3 (i.e., SEQ ID No. 11) (without the cell penetration tag) and (D) control.
FIG. 6. (A) Phase contrast microscopy of SK-MEL5 cells (Upper panel) 10 microM SEQ ID No. 10 with DR6 tags at two branches (Lower panel), and 10 microM pBBDR-TRTK (i.e., SEQ ID No. 10), pre-treated with 10 microM pifithrin-micro, 1 hr after treatment (Upper panel). (B) Confocal microscopic images of merged p53 (green) and mitotracker (red), Top untreated and bottom, 1 h after treatment with SEQ ID No. 10.
The effect of all the synthesized peptides on several melanoma cell lines which are known to over-express S100B was investigated.
Given the rapidity of apoptosis initiation, the examination of the recently reported direct mitochondrial translocation pathway was also done by the method if Vaseva and Moll, 2009. It has been reported that a small molecule pifithrin-micro blocks this pathway without affecting the canonical transcription-dependent pathway of p53 initiated apoptosis and a close analog, pifithrin-α blocks the canonical pathway without affecting the direct mitochondrial pathway (Strom et al., 2006). […]

SK-MEL-5 cells = assay type: cell-based; conditions: 18 h
Method: FIG. 4. (A) Assay of cell viability using incorporation of ^3H-thymidine after treatment with different concentrations of SEQ ID No. 10 for 18 hrs. (B) Flow cytometry of SK-MEL5 cells before and after treatment with 10 microM SEQ ID No. 10 with DR6 tags at two branches, using Annexin V and Propidium Iodide (lower panel) and forward/side scatter (upper panel).
The effect of SEQ ID No. 10 on viability was also measured by ^3H thymidine uptake (FIG. 4 (A)). […] The apoptosis of SK-Mel5 cells was quantitated using flow cytometry. 49% of cells were determined to be apoptotic and 11% necrotic at 2 hrs using annexin V stain. Corresponding figures for 6 hrs were 57% and 14%, respectively (FIG. 4(B)). From the results presented here and analysis of growth promoting pathways described later-S100B appears to be a generalized growth promoter, when over-expressed.

[1] = Toxicity in mice, i.v. treatment; assay type: in vivo, mouse
Method: The effect of SEQ ID No. 10 was tested in a syngenic mouse model of melanoma. […] Histopathology of some key target organs after 8 days of treatment was normal, indicating no significant toxicity. […] Immuno-histochemistry of growth marker PCNA indicates complete loss of this antigen in the residual tumor mass upon treatment, indicating complete loss of proliferating cells (FIG. 7(C)).
Experiments were carried out under protocols approved by the Institutional Animal Ethics Committee and institutional guidelines for the proper use of animals in research were followed. National guidelines had been followed. C57BL/6J female mice (mean initial weight, 20 g) were kept in one mice in one cage at 19° C. to 23° C. with a 12 hour light/12 hour dark cycle. They had free access to water and food. To generate tumor, 1×10^6 B16F10 cells were mixed with Matrigel (BD bioscience) and inoculated S.C. in the right flank of 6 week-old mice. Tumors (typically 2 mm in diameter) were palpable 5 days after subcutaneous injection. Peptide treatments (50 mg/kg body weight) were administered by intravenous tail vein injection on the day tumors became apparent (day 0) and then days 1, 2, 3, 4, 5, 6 and 7. Control mice were treated only with saline vehicle. Mice were weighted, and tumor volumes were calculated with the following formula: π/6×larger diameter×(smaller diameter)^2.

[2] = upto 50 mg/Kg body weight, i.v.

Molecule: SEQ ID No. 2: pBM-TRTK dimerised through cysteine residues with BMH cross-linker (TRTKIDW[Aib]KIL[Aib]GGGCG-NH2; also: dimer through Cys via BMH crosslinker)
- binding to S100B relative to parent peptide, in words (S100B; fluorescence anisotropy): approximately an order of magnitude tighter binding

Molecule: SEQ ID No. 2 with DR6 tags at two branches: pBM-TRTK dimerised with BMH crosslinker and tagged with hexa-arginine (TRTKIDW[Aib]KIL[Aib]GGGCG-NH2; also: dimer through Cys via BMH crosslinker, DR6 (hexa-arginine) tags on two branches, place not given here)
- potency in inducing apoptosis relative to SEQ ID No. 10 (SK-MEL5 cells; SK-MEL5): nearly as potent as SEQ ID No. 10

Molecule: NS(=O)(=O)C#Cc1ccccc1 [pifithrin-μ, reference compound]
- effect of pifithrin-μ on peptide-induced apoptosis (SK-MEL5 cells; 10 microM pifithrin pre-treatment, 10 microM peptide, 1 hr): blebbings are not seen

Molecule: QSTBRHBKLMFKTBG (QST[Aib]RH[Aib]KLMFKT[Aib]G-NH2) [SEQ ID No. 7, P53 Aib substituted monomer peptide]
- binding to S100B relative to parent peptide, in words (S100B; fluorescence anisotropy): somewhat stronger than the unmodified peptide
- dissociation constant for S100B, in words (S100B; fluorescence anisotropy): micromolar range

Molecule: CC[C@H](C)[C@H](NC(=O)[C@H](CCCCN)NC(=O)[C@@H](NC(=O)[C@H](CCCNC(=N)N)NC(=O)[C@@H](NC(=O)[C@@H](CCCNC(=N)N)NC(=O)[C@@H](CCCNC(=N)N)NC(=O)[C@@H](CCCNC(=N)N)NC(=O)[C@@H](CCCNC(=N)N)NC(=O)[C@@H](CCCNC(=N)N)NC(=O)[C@H](N)CCCNC(=N)N)[C@@H](C)O)[C@@H](C)O)C(=O)N[C@@H](CC(=O)O)C(=O)N[C@@H](Cc1c[nH]c2ccccc12)C(=O)NC(C)(C)C(=O)N[C@@H](CCCCN)C(=O)N[C@H](C(=O)N[C@@H](CC(C)C)C(=O)NC(C)(C)C(=O)N[C@@H](CCCCN)C(=O)NCCCCCC(=O)NCCCC[C@H](NC(=O)CCCCCNC(=O)[C@H](CCCCN)NC(=O)C(C)(C)NC(=O)[C@H](CC(C)C)NC(=O)[C@@H](NC(=O)[C@H](CCCCN)NC(=O)C(C)(C)NC(=O)[C@H](Cc1c[nH]c2ccccc12)NC(=O)[C@H](CC(=O)O)NC(=O)[C@@H](NC(=O)[C@H](CCCCN)NC(=O)[C@@H](NC(=O)[C@H](CCCNC(=N)N)NC(=O)[C@@H](NC(=O)[C@@H](CCCNC(=N)N)NC(=O)[C@@H](CCCNC(=N)N)NC(=O)[C@@H](CCCNC(=N)N)NC(=O)[C@@H](CCCNC(=N)N)NC(=O)[C@@H](CCCNC(=N)N)NC(=O)[C@H](N)CCCNC(=N)N)[C@@H](C)O)[C@@H](C)O)[C@@H](C)CC)[C@@H](C)CC)C(N)=O)[C@@H](C)CC [SEQ ID No. 10, ^DR6 TRTKIDWBKILBKAhxKAhxKBLIKBWDIKTRT-^DR6]
- IC50 (SK-MEL-5 cells): < 2000 nM
- histopathology of key target organs ([1]; after 8 days of treatment, 50 mg/Kg): normal
- lethality [1, 2]: non-lethal
- toxicity [1, 2]: no demonstrable toxicity

Molecule: CC[C@H](C)[C@H](NC(=O)[C@H](CCCCN)NC(=O)C(C)(C)NC(=O)[C@H](C)NC(=O)[C@H](CC(=O)O)NC(=O)[C@H](C)NC(=O)[C@H](CCCCN)NC(=O)[C@@H](NC(=O)[C@H](CCCNC(=N)N)NC(=O)[C@@H](N)[C@@H](C)O)[C@@H](C)O)C(=O)N[C@@H](CC(C)C)C(=O)NC(C)(C)C(=O)N[C@@H](CCCCN)C(=O)NCCCCCC(=O)NCCCC[C@H](NC(=O)CCCCCNC(=O)[C@H](CCCCN)NC(=O)C(C)(C)NC(=O)[C@H](CC(C)C)NC(=O)[C@@H](NC(=O)[C@H](CCCCN)NC(=O)C(C)(C)NC(=O)[C@H](C)NC(=O)[C@H](CC(=O)O)NC(=O)[C@H](C)NC(=O)[C@H](CCCCN)NC(=O)[C@@H](NC(=O)[C@H](CCCNC(=N)N)NC(=O)[C@@H](N)[C@@H](C)O)[C@@H](C)O)[C@@H](C)CC)C(N)=O [SEQ ID No. 12, TRTKADABKILBKAhxKAhxKBLIKBADAKTRT-(I5A,W7A)] (I: H-TRTKADA[Aib]KIL[Aib]K[Ahx]K-NH2 / II: H-TRTKADA[Aib]KIL[Aib]K[Ahx]; amide I:15-II:C; N-terminus assumed)
- Kd (S100B; fluorescence anisotropy, 50 mM Tris-HCl pH 7.5, 50 mM NaCl, 10 mM CaCl2, 25 degree C, read-out: Kd (dissociation constant) for S100B): 135 ± 18.5 nM

Molecule: SEQ ID No. 8: GCGG Modified pBM53 dimerised with BMH crosslinker; monomer QSTBRHBKLMFKTBGGGCG (QST[Aib]RH[Aib]KLMFKT[Aib]GGGCG-NH2; also: dimer via BMH crosslinker)
- increase in affinity for S100B upon dimerization (S100B; cross-linked dimer versus monomer SEQ ID No. 7): approximately 15 fold
